Earlier results, collected in US8974795B2, “Controlled release formulation based on hematin anhydride crystals for the induction of an innate immune reaction” (priority 2010, dated 2015).

conditions: not given

Structure (SMILES)	pKa
C=CC1=C(C)c2cc3[n-]c(cc4[n-]c(cc5nc(cc1n2)C(C)=C5C=C)c(C)c4CCC(=O)O)c(CCC(=O)O)c3C.[Fe+2] [heme]	about 4.5

same assay, conditions: Table 1, medium strong organic acids

pKa	Structure (SMILES)
4.61	O=C(O)CCc1ccc(Cl)cc1 [3-(4-Chlorophenyl)propanoic acid]
4.05	CC(Cl)CC(=O)O (stereo not drawn) [3-Chlorobutanoic acid]
4.19	O=C(O)Cc1ccc(Cl)cc1 [4-Chlorophenylacetic acid]
3.94	O=C(O)C(c1ccccc1)c1ccccc1 [Diphenylacetic acid]
4.59	O=C(O)CCc1cccc(Cl)c1 [3-(3-Chlorophenyl)propanoic acid]
4.58	O=C(O)CCc1ccccc1Cl [3-(2-Chlorophenyl)propanoic acid]
4.32	Cc1cc(C)cc(C(=O)O)c1 [Mesitylenic acid]

Structure (SMILES)	pKa
CC(C(=O)O)c1ccccc1 (stereo not drawn) [α-Phenylpropanoic acid]	4.64
O=C(O)Cc1ccccc1Cl [2-Chlorophenylacetic acid]	4.07
O=C(O)Cc1cccc(Cl)c1 [3-Chlorophenylacetic acid]	4.14
O=C(O)C(O)c1ccccc1 (racemic) [DL-Mandelic acid]	3.85
